# Results as given in ChEMBL document CHEMBL5465560, “Selectivity Literature for EUbOPEN Chemogenomic Library” (2024).
# Columns and labels:
# [1] = target: Myosin light chain kinase 2, skeletal/cardiac muscle (Homo sapiens) (UniProt Q9H1R3); assay: Selectivity interaction (KinomeScan (DiscoverX)) EUB0000595a MYLK2; details: at 10 µM
# [2] = target: Serine/threonine-protein kinase Chk2 (Homo sapiens) (UniProt O96017); assay: Selectivity interaction (Kinase panel (DSF assay)) EUB0001559a CHEK2
# [3] = target: Tyrosine-protein kinase BTK (Homo sapiens, UniProt Q06187); assay: Selectivity interaction (KinomeScan (DiscoverX)) EUB0000666a BTK; details: at 10 µM
# [4] = target: Phosphatidylinositol 4-kinase beta (Homo sapiens, UniProt Q9UBF8); assay: Selectivity interaction (KinomeScan (DiscoverX)) EUB0000666a PI4KB; details: at 10 µM
# [5] = target: T1, Dual specificity mitogen-activated protein kinase kinase 7 (Homo sapiens) (UniProt O14733); assay: Selectivity interaction (KinomeScan (DiscoverX)) EUB0001049a MAP2K7; details: at 1 µM
# T1 sequence (whole entry): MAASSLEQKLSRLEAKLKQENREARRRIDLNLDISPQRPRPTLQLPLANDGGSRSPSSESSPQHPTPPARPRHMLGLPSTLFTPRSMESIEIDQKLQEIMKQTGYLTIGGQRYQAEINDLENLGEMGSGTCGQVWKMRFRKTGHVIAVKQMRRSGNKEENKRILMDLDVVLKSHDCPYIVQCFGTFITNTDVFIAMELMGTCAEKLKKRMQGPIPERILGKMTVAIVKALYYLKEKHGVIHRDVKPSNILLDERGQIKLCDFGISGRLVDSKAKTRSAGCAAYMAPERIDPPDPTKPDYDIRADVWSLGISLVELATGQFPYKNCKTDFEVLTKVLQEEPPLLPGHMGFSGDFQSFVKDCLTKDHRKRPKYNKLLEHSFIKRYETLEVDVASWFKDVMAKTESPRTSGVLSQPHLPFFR
# [6] = target: Receptor-type tyrosine-protein kinase FLT3 (Homo sapiens) (UniProt P36888); assay: Selectivity interaction (Millipore kinase profiler) EUB0000124b FLT3; details: at 10 µM
# [7] = target: Hepatocyte growth factor receptor (Homo sapiens, UniProt P08581); details: at 1 µM
# [8] = target: Ribosomal protein S6 kinase alpha-1 (Homo sapiens, UniProt Q15418); assay: Selectivity interaction (ActivX KiNativ screen (ex vivo kinase selectivity in human PBMCs)) EUB0001619a RPS6KA1; format: cell-based; details: PBMC, at 1 µM
# [9] = target: Myosin light chain kinase 2, skeletal/cardiac muscle (Homo sapiens) (UniProt Q9H1R3); assay: Selectivity interaction (Kinase panel (literature)) EUB0001199aCl MYLK2; details: at 1 µM
# [10] = target: T2, Uncharacterized serine/threonine-protein kinase SBK3 (Homo sapiens) (UniProt P0C264); assay: Selectivity interaction (KinomeScan (DiscoverX)) EUB0000607a SBK3; details: at 10 µM
# T2 sequence (whole entry): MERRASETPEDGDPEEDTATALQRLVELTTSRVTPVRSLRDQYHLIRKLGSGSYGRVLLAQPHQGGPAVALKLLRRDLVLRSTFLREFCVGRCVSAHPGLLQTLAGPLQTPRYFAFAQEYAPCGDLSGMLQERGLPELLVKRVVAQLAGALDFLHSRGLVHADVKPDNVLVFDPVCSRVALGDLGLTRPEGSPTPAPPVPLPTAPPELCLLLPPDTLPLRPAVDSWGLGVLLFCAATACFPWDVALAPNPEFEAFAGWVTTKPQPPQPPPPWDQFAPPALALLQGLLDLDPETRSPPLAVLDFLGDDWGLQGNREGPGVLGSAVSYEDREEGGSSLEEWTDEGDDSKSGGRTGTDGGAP
# [11] = target: Serine/threonine-protein kinase 38 (Homo sapiens) (UniProt Q15208); assay: Selectivity interaction (KinomeScan (DiscoverX)) EUB0000618a STK38; details: at 10 µM
# [12] = target: Mitogen-activated protein kinase kinase kinase 11 (Homo sapiens) (UniProt Q16584); assay: Selectivity interaction (Kinase panel (Invitrogen)) EUB0000639a MAP3K11; details: at 200 nM
# [13] = target: Serine/threonine-protein kinase SMG1 (Homo sapiens) (UniProt Q96Q15); assay: Selectivity interaction (ActivX KiNativ screen (kinase selectivity in THP-1 cell lysates)) EUB0000639a SMG1; format: subcellular; details: lysate, at 0.2 µM
# [14] = target: Tyrosine-protein kinase Fes/Fps (Homo sapiens) (UniProt P07332); details: at 10 µM
# [15] = target: Mitogen-activated protein kinase 7 (Homo sapiens) (UniProt Q13164); assay: Selectivity interaction (Ambit KINOMEscan and KiNATiv profiling in Jurkat cells) EUB0000090b MAPK7; format: cell-based; details: at 1 µM
# [16] = target: T3, Receptor-interacting serine/threonine-protein kinase 1 (Homo sapiens) (UniProt Q13546); assay: Selectivity interaction (Ambit KINOMEscan and KiNATiv profiling in Jurkat cells) EUB0000090b RIPK1; format: cell-based; details: at 1 µM
# T3 sequence (whole entry): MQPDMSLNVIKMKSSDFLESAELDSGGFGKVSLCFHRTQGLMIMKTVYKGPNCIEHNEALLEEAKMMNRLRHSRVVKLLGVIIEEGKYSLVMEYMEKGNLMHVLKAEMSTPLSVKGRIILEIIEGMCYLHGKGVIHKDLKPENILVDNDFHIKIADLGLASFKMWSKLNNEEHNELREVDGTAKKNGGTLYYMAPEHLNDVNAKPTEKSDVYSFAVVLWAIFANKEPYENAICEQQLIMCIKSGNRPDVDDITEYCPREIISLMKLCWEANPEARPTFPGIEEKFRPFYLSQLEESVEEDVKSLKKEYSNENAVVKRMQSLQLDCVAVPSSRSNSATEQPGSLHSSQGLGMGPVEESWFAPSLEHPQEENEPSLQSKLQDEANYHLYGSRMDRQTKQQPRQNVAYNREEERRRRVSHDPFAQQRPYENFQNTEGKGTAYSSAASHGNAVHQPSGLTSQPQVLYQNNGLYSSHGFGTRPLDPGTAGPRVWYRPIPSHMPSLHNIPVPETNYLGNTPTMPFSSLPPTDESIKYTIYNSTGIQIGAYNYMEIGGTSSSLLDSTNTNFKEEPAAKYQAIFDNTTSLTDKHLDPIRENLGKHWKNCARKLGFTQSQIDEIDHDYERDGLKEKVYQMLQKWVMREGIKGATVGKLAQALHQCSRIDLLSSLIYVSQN
# Myosin light chain kinase 2, skeletal/cardiac muscle (Homo sapiens), sequence (Q9H1R3 whole entry): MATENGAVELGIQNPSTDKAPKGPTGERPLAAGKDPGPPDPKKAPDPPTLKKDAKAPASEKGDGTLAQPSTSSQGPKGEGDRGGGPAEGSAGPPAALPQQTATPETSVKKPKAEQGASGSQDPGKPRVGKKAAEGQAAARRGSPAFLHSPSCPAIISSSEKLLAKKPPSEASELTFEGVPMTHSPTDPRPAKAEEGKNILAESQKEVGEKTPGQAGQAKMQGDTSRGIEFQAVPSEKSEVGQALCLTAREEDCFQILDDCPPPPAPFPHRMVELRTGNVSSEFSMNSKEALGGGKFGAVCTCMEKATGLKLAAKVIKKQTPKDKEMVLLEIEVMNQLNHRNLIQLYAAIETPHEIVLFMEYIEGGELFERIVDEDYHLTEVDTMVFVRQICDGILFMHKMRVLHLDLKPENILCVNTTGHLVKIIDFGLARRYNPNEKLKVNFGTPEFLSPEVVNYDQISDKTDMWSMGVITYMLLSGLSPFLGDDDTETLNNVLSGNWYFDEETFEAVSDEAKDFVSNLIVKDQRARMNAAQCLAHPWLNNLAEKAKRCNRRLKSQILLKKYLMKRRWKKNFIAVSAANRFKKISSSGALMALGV
# Tyrosine-protein kinase Fes/Fps (Homo sapiens), sequence (P07332 whole entry): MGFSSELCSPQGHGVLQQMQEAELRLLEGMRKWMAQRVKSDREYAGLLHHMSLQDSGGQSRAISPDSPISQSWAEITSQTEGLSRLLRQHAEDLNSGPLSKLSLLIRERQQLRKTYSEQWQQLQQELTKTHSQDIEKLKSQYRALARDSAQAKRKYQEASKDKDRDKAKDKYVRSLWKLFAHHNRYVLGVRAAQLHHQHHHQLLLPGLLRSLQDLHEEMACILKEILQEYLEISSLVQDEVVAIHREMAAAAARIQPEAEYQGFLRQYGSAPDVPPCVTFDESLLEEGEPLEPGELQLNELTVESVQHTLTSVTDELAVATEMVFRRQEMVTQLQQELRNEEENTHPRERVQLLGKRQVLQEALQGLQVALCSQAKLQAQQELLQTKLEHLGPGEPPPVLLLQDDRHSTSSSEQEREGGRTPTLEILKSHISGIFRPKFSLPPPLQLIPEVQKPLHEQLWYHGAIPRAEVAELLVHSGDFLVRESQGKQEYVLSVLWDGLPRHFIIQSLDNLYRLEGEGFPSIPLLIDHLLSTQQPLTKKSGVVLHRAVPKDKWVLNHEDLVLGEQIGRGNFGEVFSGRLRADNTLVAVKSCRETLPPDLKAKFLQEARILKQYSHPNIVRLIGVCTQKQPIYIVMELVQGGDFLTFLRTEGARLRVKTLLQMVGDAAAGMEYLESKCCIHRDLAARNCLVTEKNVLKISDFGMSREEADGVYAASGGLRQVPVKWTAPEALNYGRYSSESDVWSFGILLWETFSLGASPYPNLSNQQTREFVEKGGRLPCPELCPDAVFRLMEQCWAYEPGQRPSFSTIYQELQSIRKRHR
# Mitogen-activated protein kinase kinase kinase 11 (Homo sapiens), sequence (Q16584 whole entry, looked up): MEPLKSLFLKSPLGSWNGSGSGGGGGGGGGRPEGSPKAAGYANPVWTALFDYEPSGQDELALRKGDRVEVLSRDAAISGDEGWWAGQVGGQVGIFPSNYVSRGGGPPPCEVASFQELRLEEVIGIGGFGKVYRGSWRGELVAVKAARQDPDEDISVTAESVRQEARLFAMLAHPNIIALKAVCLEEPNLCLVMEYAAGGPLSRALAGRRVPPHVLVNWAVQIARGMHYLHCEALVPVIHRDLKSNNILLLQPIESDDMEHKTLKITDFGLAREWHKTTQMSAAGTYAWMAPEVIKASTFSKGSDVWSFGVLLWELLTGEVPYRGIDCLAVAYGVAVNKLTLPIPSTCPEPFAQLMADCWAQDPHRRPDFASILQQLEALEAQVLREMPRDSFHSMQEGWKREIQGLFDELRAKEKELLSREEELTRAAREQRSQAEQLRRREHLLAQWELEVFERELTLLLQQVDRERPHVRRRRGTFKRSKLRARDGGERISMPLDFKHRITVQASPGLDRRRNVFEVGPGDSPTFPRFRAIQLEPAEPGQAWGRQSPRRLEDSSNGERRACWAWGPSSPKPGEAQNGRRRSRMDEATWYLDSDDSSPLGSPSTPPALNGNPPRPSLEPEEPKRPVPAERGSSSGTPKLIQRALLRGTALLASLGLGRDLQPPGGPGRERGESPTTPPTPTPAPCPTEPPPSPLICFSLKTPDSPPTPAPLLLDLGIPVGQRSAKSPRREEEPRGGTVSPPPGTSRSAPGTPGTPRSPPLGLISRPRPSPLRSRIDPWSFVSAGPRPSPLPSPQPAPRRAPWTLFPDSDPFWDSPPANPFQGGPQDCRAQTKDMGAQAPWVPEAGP
# Phosphatidylinositol 4-kinase beta, sequence (Q9UBF8 2-816 limits assumed): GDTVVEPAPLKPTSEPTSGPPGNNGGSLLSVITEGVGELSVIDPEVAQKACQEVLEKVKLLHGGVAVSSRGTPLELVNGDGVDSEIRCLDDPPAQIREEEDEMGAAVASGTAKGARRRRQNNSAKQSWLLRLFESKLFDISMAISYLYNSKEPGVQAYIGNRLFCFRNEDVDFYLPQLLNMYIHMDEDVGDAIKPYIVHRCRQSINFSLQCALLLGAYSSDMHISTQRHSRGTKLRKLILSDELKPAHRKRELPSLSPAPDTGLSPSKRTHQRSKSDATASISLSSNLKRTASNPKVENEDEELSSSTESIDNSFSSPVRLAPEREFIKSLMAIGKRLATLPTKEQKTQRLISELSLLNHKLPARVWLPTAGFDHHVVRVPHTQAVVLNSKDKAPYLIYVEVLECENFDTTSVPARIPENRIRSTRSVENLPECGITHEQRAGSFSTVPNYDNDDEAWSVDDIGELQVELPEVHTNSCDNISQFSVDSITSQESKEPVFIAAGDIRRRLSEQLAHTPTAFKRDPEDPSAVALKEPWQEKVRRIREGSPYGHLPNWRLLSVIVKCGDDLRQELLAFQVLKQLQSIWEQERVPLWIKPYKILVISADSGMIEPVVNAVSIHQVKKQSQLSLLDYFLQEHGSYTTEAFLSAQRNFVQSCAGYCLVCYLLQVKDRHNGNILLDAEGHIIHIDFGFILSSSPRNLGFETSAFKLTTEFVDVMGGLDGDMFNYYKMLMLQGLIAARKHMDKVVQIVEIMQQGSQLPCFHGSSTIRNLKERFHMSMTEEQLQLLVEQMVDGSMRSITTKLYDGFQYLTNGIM
# Ribosomal protein S6 kinase alpha-1, sequence (Q15418 whole entry): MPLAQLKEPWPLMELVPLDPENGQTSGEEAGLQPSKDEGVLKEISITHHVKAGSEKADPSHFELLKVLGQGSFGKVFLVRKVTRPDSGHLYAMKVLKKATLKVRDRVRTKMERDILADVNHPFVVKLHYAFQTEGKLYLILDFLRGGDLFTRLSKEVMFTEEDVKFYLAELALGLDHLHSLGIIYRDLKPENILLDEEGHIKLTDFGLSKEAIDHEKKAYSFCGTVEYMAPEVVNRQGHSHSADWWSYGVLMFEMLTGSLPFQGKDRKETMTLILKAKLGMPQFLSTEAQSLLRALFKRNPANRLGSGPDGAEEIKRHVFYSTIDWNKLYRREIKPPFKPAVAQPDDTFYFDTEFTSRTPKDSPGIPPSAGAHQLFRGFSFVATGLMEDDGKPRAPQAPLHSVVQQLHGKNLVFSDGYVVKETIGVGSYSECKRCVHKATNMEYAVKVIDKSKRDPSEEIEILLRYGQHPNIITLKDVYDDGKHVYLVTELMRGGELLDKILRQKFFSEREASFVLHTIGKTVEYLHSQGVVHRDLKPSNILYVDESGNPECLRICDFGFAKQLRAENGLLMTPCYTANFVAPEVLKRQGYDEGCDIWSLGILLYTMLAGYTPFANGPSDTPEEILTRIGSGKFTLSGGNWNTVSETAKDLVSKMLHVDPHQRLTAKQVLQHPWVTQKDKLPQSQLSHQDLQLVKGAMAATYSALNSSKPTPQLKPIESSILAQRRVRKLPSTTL
# Mitogen-activated protein kinase 7 (Homo sapiens), sequence (Q13164 2-816 limits assumed): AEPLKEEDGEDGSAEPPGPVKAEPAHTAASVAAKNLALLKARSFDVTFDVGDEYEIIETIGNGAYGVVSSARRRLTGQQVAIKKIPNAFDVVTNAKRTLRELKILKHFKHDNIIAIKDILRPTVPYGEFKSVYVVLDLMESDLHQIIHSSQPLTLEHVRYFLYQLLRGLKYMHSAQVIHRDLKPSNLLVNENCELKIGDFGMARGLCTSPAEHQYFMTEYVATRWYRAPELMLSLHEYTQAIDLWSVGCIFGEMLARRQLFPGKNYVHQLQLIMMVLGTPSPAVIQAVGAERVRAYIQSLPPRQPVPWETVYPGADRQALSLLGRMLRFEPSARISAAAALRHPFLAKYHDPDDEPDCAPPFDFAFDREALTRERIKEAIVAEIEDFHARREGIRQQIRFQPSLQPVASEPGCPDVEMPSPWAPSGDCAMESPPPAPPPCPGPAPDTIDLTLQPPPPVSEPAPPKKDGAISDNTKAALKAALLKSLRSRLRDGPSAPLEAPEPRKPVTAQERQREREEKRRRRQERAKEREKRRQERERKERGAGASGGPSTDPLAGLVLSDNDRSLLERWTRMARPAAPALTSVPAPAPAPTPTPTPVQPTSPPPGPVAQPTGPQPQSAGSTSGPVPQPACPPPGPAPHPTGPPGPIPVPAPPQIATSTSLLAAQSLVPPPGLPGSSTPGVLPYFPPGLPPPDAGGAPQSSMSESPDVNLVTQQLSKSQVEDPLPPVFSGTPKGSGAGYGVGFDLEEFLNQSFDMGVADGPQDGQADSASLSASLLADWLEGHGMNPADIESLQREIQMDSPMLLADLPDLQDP
smiles,measurement,setting,value
COCC(=O)NC/C=C/c1ccc2ncnc(Nc3ccc(Oc4ccc(C)nc4)c(C)c3)c2c1 [CP-724714],% of control,[1],100%
CN(C(=O)c1cnn2cccnc12)c1cc2c(cc1N1CCOCC1)C(=O)N(C[C@@H](F)C(C)(C)O)C2,dTM,[2],0.2 K
O=C(NOC[C@H](O)CO)c1ccc(F)c(F)c1Nc1ccc(I)cc1F,% of control,[3],87%
same,% of control,[4],100%
COc1cc(Nc2nc(C)cc(-c3cnn4nc(OC)ccc34)n2)cc(C(F)(F)F)c1,% of control,[5],99%
CC(=O)Nc1cccc(-n2c(=O)n(C3CC3)c(=O)c3c(Nc4ccc(I)cc4F)n(C)c(=O)c(C)c32)c1,% of control,[6],107%
Cc1ccc(-c2ccc3c(ccc4sc5c(c43)NC[C@@H](C)NC5=O)n2)cn1,% of inhibition,[7],41%
N#Cc1cccc(-c2c[nH]c3ncnc(N4CCOCC4)c23)c1,% of inhibition,[8],13%
CN1Cc2nccc(-c3cn(C)nc3-c3ccc(F)cc3)c2C1=O,% of inhibition,[9],5%
CNC(=O)Nc1ccc(-c2nc(N3CC4CCC(C3)O4)c3cnn(C4CCC5(CC4)OCCO5)c3n2)cc1,% of control,[10],96%
O[C@H]1CC[C@H](Nc2ncc3nc(Nc4c(F)cc(F)cc4F)n([C@H]4CCOC4)c3n2)CC1,% of control,[11],100%
CC[C@@H]1[C@H](F)C(=O)N[C@@H]1COc1nccc2cc(C(N)=O)c(OC)cc12 [ZIMLOVISERTIB],% of inhibition,[12],0.995%
same,% of inhibition,[13],0%
CCN(CC)CCCCNc1ncc2cc(-c3cc(OC)cc(OC)c3)c(NC(=O)NC(C)(C)C)nc2n1,% of control,[14],100%
CN(C)C/C=C/C(=O)Nc1ccc(C(=O)N2CCCC(Nc3ncc(Cl)c(-c4c[nH]c5ccccc45)n3)C2)cc1 (stereo unspecified),% of control,[15],88%
same,% of control,[16],94%
